Patent US9271961B2, “Bifunctional AKR1C3 inhibitors/androgen receptor modulators and methods of use thereof” (THE TRUSTEES OF THE UNIVERSITY OF PENNSYLVANIA, priority 2011, dated 2016)
Blank lines part the entries; values can stand above or below the molecule they belong to.

Key:
AKR1C enzymes = test: Inhibition of AKR1C enzymes (FIG. 20); type: biochemical
AKR1C3 [1] = molecular target: T1, AKR1C3 (Homo sapiens (Human), UniProt P42330); test: Inhibition of NADP+ dependent oxidation of S-tetralol by recombinant AKR1C3; type: biochemical; details: for IC50: S-tetralol oxidation, substrate at KM
Protocol: The inhibitory potency of the compounds disclosed herein was determined using purified homogenous recombinant enzymes. Full concentration response studies were conducted and IC50 values calculated using Grafit 5.0 software. The compounds were evaluated for their effects on enzyme catalyzed oxidation of S-tetralol using a 96-well plate format.
The primary screen was also modified to report the following ratio: AKR1C2 IC50 value:AKR1C3 IC50 value. […] When bifunctional AKR1C3 and SARMs are sought the androgen receptor reporter gene assay is moved up in sequence.
Based on this assumption, the screening strategy adopted was to determine the inhibitory potency of each compound against AKR1C2 and AKR1C3 and use the ratio of IC50 value for AKR1C2:IC50 value for AKR1C3 as an index of compound selectivity for AKR1C3. The inhibitory potency of compounds on AKR1C2 and AKR1C3 was determined by measuring the inhibition of the NADP^+ dependent oxidation of S-tetralol.

AKR1C3 [2] = molecular target: T1, AKR1C3; test: Conversion of Δ4-AD to testosterone in LNCaP cells stably transfected with AKR1C3; type: cell-based; details: for amount of testosterone formed from Δ4-AD: LNCaP-AKR1C3 cells; for conversion of Δ4-AD to testosterone: LNCaP-AKR1C3 transfected cells, 10 μM
Protocol: LNCaP cells were stably transfected with AKR1 C3 using the retroviral construct pLNCX-AKR1C3, and its expression was documented using both RT-PCR and immunoblot analysis using an isoform specific monoclonal AKR1C3 antibody (Byrns et al., 2012, J. Steroid Biochem. Mol. Biol. 130:7-15). Metabolism studies of 0.1 μM and 5.0 μM [^14C]-Δ^4-AD were conducted in LNCaP and LNCaP-AKR1C3 cells with the anticipation that the transfected cells would form more testosterone. The bulk of the metabolites formed in LNCaP cells were found in the aqueous phase. When this phase was treated with β-glucuronidase (200 units/mL at pH 6.6) and re-extracted, androsterone was the predominate metabolite released into the organic soluble fraction providing evidence for the formation of androsterone-3α-glucuronide. When LNCaP-AKR1C3 transfected cells were used, the bulk of the metabolites were again found in the aqueous phase. However, β-glucuronidase treatment of the aqueous phase yielded both androsterone and testosterone, providing evidence for testosterone formation by these cells.
Tertiary screens of the compounds of interest include: (a) inhibition of the conversion of Δ^4-AD to testosterone in LNCaP (AR dependent prostate cancer) cells stably transfected with AKR1C3; (b) inhibition of Δ^4-AD mediated cell proliferation in LNCaP cells stably transfected with AKR1C3; and (c) inhibition of growth of castrate resistant prostate cancer cells in culture.

COX-1 = COX-1 (Homo sapiens (Human), UniProt P23219); test: Screen against COX-1; type: biochemical
COX-2 = COX-2 (Homo sapiens (Human), UniProt P35354); test: Screen against COX-2; type: biochemical
[3] = system: mutated AR and PSA expression; test: Mutated AR levels and PSA expression in LNCaP-AKR1C3 cells; type: cell-based; details: presence of either 1.0 nM 5α-DHT or 100 nM Δ4-AD
[4] = molecular target: retinal reductase (AKR1B10) (Homo sapiens (Human), UniProt O60218); test: Secondary screen against retinal reductase; type: biochemical
AKR1C3 [5] = molecular target: T1, AKR1C3; test: Inhibition of AKR1C3 catalyzed reduction of Δ4-androstene-3,17-dione to testosterone; type: biochemical
Text: Compounds may be evaluated as selective reversible inhibitors of AKR1C3 by screening them against homogeneous recombinant AKR1C1-AKR1C4 expressed in E. coli. […] IC50 values are generated using steroid concentrations at KM.
The primary screen was also modified to report the following ratio: AKR1C2 IC50 value:AKR1C3 IC50 value. A high ratio reflects a high selectivity for AKR1C3 and data are used to generate heat-maps, FIG. 14. This method is preferred to measuring percent inhibition using a single concentration of 1.0 μM inhibitor, since this single point method is prone to identifying false positives. […] The leads may then be moved into secondary in vitro screens (complete screen against all human AKR isoforms; COX-1 and COX-2; and other relevant human 17β-HSD isoforms); tertiary screens using cell-based assays (inhibition of AKR1C3 mediated testosterone production and AKR1C3 mediated cell proliferation in prostate cancer cell lines; and modulation of the androgen receptor in reporter gene assays); and quaternary screens in xenograft models of CRPC. When bifunctional AKR1C3 and SARMs are sought the androgen receptor reporter gene assay is moved up in sequence.

AR [6] = molecular target: T2, AR (Homo sapiens (Human), UniProt P10275); test: AR nuclear translocation from the cytosol in HeLa 13 cells; details: presence of DHT
Text: AR LE and AR SE=long and short exposure to detect cytoplasmic AR. β-tubulin was used as a loading control.

[7] = system: prostatic specific antigen (PSA) gene expression; test: AR regulated PSA gene expression in LNCaP cells; type: cell-based; details: 10-30 μM, presence and absence of 5α-DHT (0.1-1.0 nM)
[8] = molecular target: aldose reductase (AKR1B1) (Homo sapiens (Human), UniProt P15121); test: Secondary screen against aldose reductase; type: biochemical
AR [9] = molecular target: T2, AR; test: AR stability / degradation in Hela cells; type: cell-based; details: 10-40 μM, presence and absence of 0.1 nM 5α-DHT

Molecule: 4-chloro-N-phenylanthranilate [reference compound]
inhibition of AKR1C enzymes (AKR1C enzymes): inhibits

Molecule: O=C(O)c1ccccc1Nc1cccc(C(F)(F)F)c1 [Compound 1, Flufenamic Acid, reference compound]
IC50 (AKR1C3 [1]): 50 nM

Molecule: O=C(O)c1cccc(Nc2ccc(C(F)(F)F)cc2)c1 [Compound 7, 3-[N-(4-Trifluoromethylphenyl)amino]benzoic acid]
amount of testosterone formed from Δ4-AD (AKR1C3 [2]): significant decline

Second part, led by results:

IC50 (AKR1C3 [1]): 940 nM
Molecule: O=C(O)c1cccc(Nc2ccccc2)c1 [Compound 3, 3-Phenylamino benzoic acid]

AKR1C3 inhibitory potency (in words) (AKR1C3 [1]): low nanomolar range
IC50 (AKR1C3 [1]): 36 nM
Molecule: O=C(O)c1cccc(Nc2ccc([N+](=O)[O-])cc2)c1 [Compound 5, 3-[N-(4-nitrophenyl)amino]benzoic acid]

conversion of Δ4-AD to testosterone (AKR1C3 [2]): completely blocked
Molecule: O=C(O)c1cccc(Nc2ccc(Cl)cc2)c1 [Compound 8, 3-[N-(4-Chlorophenyl)amino]benzoic acid]

inhibition of COX-1 (COX-1): failed to inhibit
inhibition of COX-2 (COX-2): failed to inhibit
inhibition of retinal reductase (AKR1B10) [4]: failed to inhibit
slope factor of the inhibition dose-response curve (AKR1C3 [1]; AKR1C3): approximately two
Ki (AKR1C3 [1]; S-tetralol as substrate): 58.2 nM
pattern of inhibition of AKR1C3 (AKR1C3 [1]; S-tetralol as substrate, E.NADP+.S-tetralol complex): competitive inhibition
IC50 (AKR1C3 [1]): 75 nM
pattern of inhibition of AKR1C3 (AKR1C3 [5]; Δ4-AD as substrate, E.NADPH.Δ4-AD complex): competitive inhibition
Ki (AKR1C3 [5]; Δ4-androstene-3,17-dione as substrate): 2470 nM
inhibition of aldose reductase (AKR1B1) [8]: failed to inhibit
amount of testosterone formed from Δ4-AD (AKR1C3 [2]): significant decline
conversion of Δ4-AD to testosterone (AKR1C3 [2]): completely blocked
degradation of the AR (AR [9]): dose-dependent degradation
Molecule: O=C(O)c1cccc(Nc2ccc([N+](=O)[O-])c3ccccc23)c1 [Compound 13, 3-((4-nitronaphthalen-1-yl)amino)benzoic acid]
expression of the mutated AR and PSA [3]: decrease
cytoplasmic AR (prevention of nuclear localization of the AR) (AR [6]): dose dependent increase in cytoplasmic AR
expression of PSA [7]: block the expression of PSA
